Measured values from patent US8604034B2, “Substituted imidazo[1,2-α]pyrrolo[1,2-d]pyrazines for treating respiratory syncytial virus (RSV) infections” (Biota Scientific Management Pty Ltd., priority 2010, dated 2013).
Read-outs that look alike come from different tables or passages of the source.

Test system: RSV A2
Experiment: RSV antiviral cytopathic effect (CPE) assay
Type: cell-based
Settings: human respiratory syncytial virus, HEp-2, 120 h, HEp2 cells infected with RSV A2 (moi ~0.01), 5 days, MTT readout
Experimental: Compounds of the invention were tested for their antiviral activity against respiratory syncytial virus. Cytopathic effect (CPE) assays were performed essentially as described in the literature (see for example Watanabe et al, 1994, J. Virological Methods, 48:257). Serial dilutions of the test compounds were made in 96 well plates. HEp2 cells (1.0×10^4 cells/well) were infected with RSV at a low multiplicity of infection (e.g. RSV A2 at an moi of ˜0.01) and added to plates to assess antiviral activity. Uninfected HEp2 cells were used to assess compound cytotoxicity. Assays were incubated for 5 days at 37° C. in a 5% CO2 atmosphere. The extent of CPE was determined via metabolism of the vital dye 3-(4,5-dimethylthiaxol-2-yl)-2,5-diphenyltetrazolium bromide (MTT). MTT (1 mg/ml) was added to each well and plates incubated for 2 hours incubation at 37° C. Wells were aspirated, iso-propanol (200 μL) was added and absorbance values read at 540/650 nm. Compound concentrations that inhibited CPE by 50% (EC50) and developed cytotoxicity (CC50) were calculated using non-linear regression analysis.
Representative mean EC50 values obtained are also provided. In the inventors' experience, replicate EC50 values usually fall within three standard deviations of the mean.

[1] = read-out: Activity Range (RSV A2 EC50)
[2] = mean EC50, read-out: RSV A2 EC50

SMILES | EC50 [1] [nM] | EC50 [2] [nM]
Cc1nocc1C(=O)N1CCN2C(=O)c3cc(-c4cccnc4)cn3CC12c1ccc(CO)cc1 (stereo not drawn) [Compound 95, 10a-[4-(hydroxymethyl)phenyl]-1-[(3-methyl-1,2-oxazol-4-yl)carbonyl]-7-(pyridin-3-yl)-2,3,10,10a-tetrahydro-1H,5H-imidazo[1,2-a]pyrrolo[1,2-d]pyrazin-5-one] | 100 to 499 | 160
Cc1nocc1C(=O)N1CCN2C(=O)c3ccc(-c4cnn(C)c4)n3CC12c1ccc(F)cc1 (stereo not drawn) [Compound 96] | 100 to 499 | 150
Cc1nocc1C(=O)N1CCN2C(=O)c3ccc(-c4cccnc4)n3CC12c1ccc(F)cc1 (stereo not drawn) [Compound 97] | 100 to 499 | 460
Cc1nocc1C(=O)N1CCN2C(=O)c3cc(-c4cccnc4)cn3CC12c1ccc(F)cc1 (stereo not drawn) [Compound 98] | 50 to 99 | 69
Cc1nocc1C(=O)N1CCN2C(=O)c3ccc(-c4ccncc4)n3CC12c1ccc(F)cc1 (stereo not drawn) [Compound 99] | 100 to 499 | 190
COc1ccc(C23Cn4cc(-c5ccc(C(=O)O)cc5)cc4C(=O)N2CCN3C(=O)c2conc2C)cc1 (stereo not drawn) [Compound 100] | 500 to 10000 | 8000
Cc1nocc1C(=O)N1CCN2C(=O)c3cccn3CC12c1cccnc1 (stereo not drawn) [Compound 101, 1-[(3-methyl-1,2-oxazol-4-yl)carbonyl]-10a-(pyridin-3-yl)-2,3,10,10a-tetrahydro-1H,5H-imidazo[1,2-a]pyrrolo[1,2-d]pyrazin-5-one] | 500 to 10000 | 730
O=C1c2cccn2CC2(c3cccnc3)NCCN12 (stereo not drawn) [Compound 102, 10a-(pyridin-3-yl)-2,3,10,10a-tetrahydro-1H,5H-imidazo[1,2-a]pyrrolo[1,2-d]pyrazin-5-one] | > 10000 | 
Cc1nocc1C(=O)N1CCN2C(=O)c3cccn3CC12c1ccccn1 (stereo not drawn) [Compound 103, 1-[(3-methyl-1,2-oxazol-4-yl)carbonyl]-10a-(pyridin-2-yl)-2,3,10,10a-tetrahydro-1H,5H-imidazo[1,2-a]pyrrolo[1,2-d]pyrazin-5-one] | 100 to 499 | 380
Cc1ccc(C23Cn4cccc4C(=O)N2CCN3C(=O)c2conc2C)nc1 (stereo not drawn) [Compound 104] | < 49 | 27
Cc1nocc1C(=O)N1CCN2C(=O)c3cccn3CC12c1ccc(C(F)(F)F)nc1 (stereo not drawn) [Compound 105] | 100 to 499 | 130
COc1ccc(C23Cn4c(C#N)ccc4C(=O)N2CCN3C(=O)c2conc2C)cc1 (stereo not drawn) [Compound 106, 10a-(4-methoxyphenyl)-1-[(3-methyl-1,2-oxazol-4-yl)carbonyl]-5-oxo-2,3,10,10a-tetrahydro-1H,5H-imidazo[1,2-a]pyrrolo[1,2-d]pyrazine-8-carbonitrile] | < 49 | 4.1
COc1ccc(C23Cn4c(C)ccc4C(=O)N2CCN3C(=O)c2conc2C)cc1 (stereo not drawn) [Compound 107, 10a-(4-methoxyphenyl)-8-methyl-1-[(3-methyl-1,2-oxazol-4-yl)carbonyl]-2,3,10,10a-tetrahydro-1H,5H-imidazo[1,2-a]pyrrolo[1,2-d]pyrazin-5-one] | < 49 | 14
C#Cc1ccc2n1CC1(c3ccc(OC)cc3)N(C(=O)c3conc3C)CCN1C2=O (stereo not drawn) [Compound 108, 8-ethynyl-10a-(4-methoxyphenyl)-1-[(3-methyl-1,2-oxazol-4-yl)carbonyl]-2,3,10,10a-tetrahydro-1H,5H-imidazo[1,2-a]pyrrolo[1,2-d]pyrazin-5-one] | < 49 | 17
Cc1nocc1C(=O)N1CCN2C(=O)c3cccn3CC12c1ccc(OCCO)cc1 (stereo not drawn) [Compound 109, 10a-[4-(2-hydroxyethoxy)phenyl]-1-[(3-methyl-1,2-oxazol-4-yl)carbonyl]-2,3,10,10a-tetrahydro-1H,5H-imidazo[1,2-a]pyrrolo[1,2-d]pyrazin-5-one] | 100 to 499 | 300
Cc1nocc1C(=O)N1CCN2C(=O)c3cccn3CC12c1ccc(OCCN2CCOCC2)cc1 (stereo not drawn) [Compound 110, 1-[(3-methyl-1,2-oxazol-4-yl)carbonyl]-10a-{4-[2-(morpholin-4-yl)ethoxy]phenyl}-2,3,10,10a-tetrahydro-1H,5H-imidazo[1,2-a]pyrrolo[1,2-d]pyrazin-5-one] | 500 to 10000 | 680
COc1ccc(C23Cn4cc(N)cc4C(=O)N2CCN3C(=O)c2conc2C)cc1 (stereo not drawn) [Compound 111, 7-amino-10a-(4-methoxyphenyl)-1-[(3-methyl-1,2-oxazol-4-yl)carbonyl]-2,3,10,10a-tetrahydro-1H,5H-imidazo[1,2-a]pyrrolo[1,2-d]pyrazin-5-one] | > 10000 | 16000
COc1ccc(C23Cn4cc(NC5CCCCC5)cc4C(=O)N2CCN3C(=O)c2conc2C)cc1 (stereo not drawn) [Compound 112, 7-(cyclohexylamino)-10a-(4-methoxyphenyl)-1-[(3-methyl-1,2-oxazol-4-yl)carbonyl]-2,3,10,10a-tetrahydro-1H,5H-imidazo[1,2-a]pyrrolo[1,2-d]pyrazin-5-one] | > 10000 | 
COc1ccc(C23Cn4cc(-n5ccnn5)cc4C(=O)N2CCN3C(=O)c2conc2C)cc1 (stereo not drawn) [Compound 113, 10a-(4-methoxyphenyl)-1-[(3-methyl-1,2-oxazol-4-yl)carbonyl]-7-(1H-1,2,3-triazol-1-yl)-2,3,10,10a-tetrahydro-1H,5H-imidazo[1,2-a]pyrrolo[1,2-d]pyrazin-5-one] | 100 to 499 | 320
Cc1cnc(C23Cn4cccc4C(=O)N2CCN3C(=O)c2conc2C)cn1 (stereo not drawn) [Compound 114] | < 49 | 39
COc1ccc(C23Cn4cccc4C(=O)N2CCN3C(=O)c2conc2C)nc1 (stereo not drawn) [Compound 115] | 100 to 499 | 230

SMILES | EC50 [1] [nM] | EC50 [2] [nM]
Cc1nocc1C(=O)N1CCN2C(=O)c3cccn3CC12c1ccc(C(F)(F)F)cn1 (stereo not drawn) [Compound 116, 1-[(3-methyl-1,2-oxazol-4-yl)carbonyl]-10a-[5-(trifluoromethyl)pyridin-2-yl]-2,3,10,10a-tetrahydro-1H,5H-imidazo[1,2-a]pyrrolo[1,2-d]pyrazin-5-one] | 50 to 99 | 59
Cc1ccc(C23Cn4cc(Br)cc4C(=O)N2CCN3C(=O)c2conc2C)nc1 (stereo not drawn) [Compound 117] | 500 to 10000 | 880
Cc1nocc1C(=O)N1CCN2C(=O)c3cccn3CC12c1cnn(C)c1 (stereo not drawn) [Compound 118] | 100 to 499 | 320
Cc1cc(C23Cn4cccc4C(=O)N2CCN3C(=O)c2conc2C)ccn1 (stereo not drawn) [Compound 119] | 50 to 99 | 96
Cc1ccc(C23Cn4cc(-c5cccnc5)cc4C(=O)N2CCN3C(=O)c2conc2C)nc1 (stereo not drawn) [Compound 120] | 50 to 99 | 87
Cc1cnc(C23Cn4cc(-c5cccnc5)cc4C(=O)N2CCN3C(=O)c2conc2C)cn1 (stereo not drawn) [Compound 121, 1-[(3-methyl-1,2-oxazol-4-yl)carbonyl]-10a-(5-methylpyrazin-2-yl)-7-(pyridin-3-yl)-2,3,10,10a-tetrahydro-1H,5H-imidazo[1,2-a]pyrrolo[1,2-d]pyrazin-5-one] | < 49 | 42
Cc1nocc1C(=O)N1CCN2C(=O)c3cccn3CC12c1ccncc1 (stereo not drawn) [Compound 122, 1-[(3-methyl-1,2-oxazol-4-yl)carbonyl]-10a-(pyridin-4-yl)-2,3,10,10a-tetrahydro-1H,5H-imidazo[1,2-a]pyrrolo[1,2-d]pyrazin-5-one] | 100 to 499 | 430
Cc1ccc(C23Cn4c(C#N)ccc4C(=O)N2CCN3C(=O)c2conc2C)cn1 (stereo not drawn) [Compound 126] | < 49 | 7.8
Cc1ccc(C23Cn4cc(-c5ccccn5)cc4C(=O)N2CCN3C(=O)c2conc2C)cn1 (stereo not drawn) [Compound 127] | < 49 | 27
COc1ccc(C23Cn4cc(-c5ccccn5)cc4C(=O)N2CCN3C(=O)c2conc2C)cn1 (stereo not drawn) [Compound 128] | 50 to 99 | 64
Cc1nocc1C(=O)N1CCN2C(=O)c3cc(-c4ccccn4)nn3CC12c1ccc(F)cc1 (stereo not drawn) [Compound 129] | 100 to 499 | 130
COc1ccc(C23Cn4cccc4C(=O)N2CCN3C(=O)NCc2ccco2)cc1 (stereo not drawn) [Compound 130] | > 10000 | 
COc1ccc(C23Cn4cccc4C(=O)N2CCN3S(=O)(=O)c2ccccc2)cc1 (stereo not drawn) [Compound 131] | > 10000 | 
Cc1ccc(C23Cn4cc(-c5cnn(C)c5)cc4C(=O)N2CCN3C(=O)c2conc2C)cn1 (stereo not drawn) [Compound 132] | < 49 | 31
COc1ccc(C23Cn4c(C#N)ccc4C(=O)N2CCN3C(=O)c2conc2C)cn1 (stereo not drawn) [Compound 133] | < 49 | 7
Cc1ccc(C23Cn4cc(-c5cnn(C)c5)cc4C(=O)N2CCN3C(=O)c2conc2C)nc1 (stereo not drawn) [Compound 134] | < 49 | 31
Cc1ccc(C23Cn4cc(-c5ccncc5)cc4C(=O)N2CCN3C(=O)c2conc2C)cn1 (stereo not drawn) [Compound 135] | < 49 | 9.1
COc1ccc(C23Cn4cccc4C(=O)N2CCN3C(=O)c2nonc2C)cc1 (stereo not drawn) [Compound 136] | 500 to 10000 | 890
COc1ccc(C23Cn4cccc4C(=O)N2CCN3C(=O)c2ccsc2)cc1 (stereo not drawn) [Compound 137] | 500 to 10000 | 6600
COc1ccc(C23Cn4nc(-c5ccccn5)cc4C(=O)N2CCN3C(=O)c2conc2C)cc1 (stereo not drawn) [Compound 138] | 500 to 10000 | 4200
